Results reported in patent publication US20150105252A1, “SUBSTITUTED PYRAZOLES AS HERBICIDES” (E I DU PONT DE NEMOURS AND COMPANY, priority 2013, published 2015).

What was measured:
foxtail, giant = experiment: Test A preemergence; type: in vivo, Setaria faberii; conditions: preemergence; for Foxtail, Giant plant response rating (0 to 100 scale): visual injury approx. 10 days after treatment
Method in brief: (§1)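 Growth medium: loam soil blended with sand. Preemergence treatment used a directed soil spray right after planting; postemergence treatment targeted seedlings at one to two leaves (2–10 cm height). Response was judged by eye relative to untreated plants about 10 days later on a 0–100 control scale.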

galium = experiment: Test C preemergence; type: in vivo, Galium aparine; conditions: for Galium plant response rating / Plant response rating, Galium: preemergence; for Plant response rating, Galium: 125 g ai/ha, scale 0 to 100, 0 = no effect, 100 = complete control
Method in brief: (§2)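 Pre- and postemergence greenhouse screen; vehicle was a non-phytotoxic solvent mix with surfactant. Preemergence: treatment applied right after sowing into loam and sand. Postemergence: treated at 1–4 leaves. Visual rating at 13–15 days, 100 = complete control.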

corn [1] = experiment: Test A postemergence; type: in vivo, Zea mays
Method in brief: as §1

corn [2] = experiment: Test C preemergence; type: in vivo, Zea mays; conditions: for Corn plant response rating / Plant response rating, Corn: preemergence; for Plant response rating, Corn: 125 g ai/ha, scale 0 to 100, 0 = no effect, 100 = complete control
Method in brief: as §2

nutsedge, yellow = experiment: Test C postemergence; type: in vivo, Cyperus esculentus; conditions: for Plant response rating (scale of 0 to 100 where 0 is no effect and 100 is complete control), Nutsedge, Yellow: Postemergence, 31 g ai/ha, visually evaluated after 13 to 15 days; for Nutsedge, Yellow plant response rating / Plant response rating, Nutsedge, Yellow: postemergence; for Nutsedge, Yellow plant response rating: 62 g ai/ha, scale 0 to 100
Method in brief: as §2

wheat = experiment: Test A preemergence; type: in vivo, Triticum aestivum; conditions: preemergence; for Wheat plant response rating (0 to 100 scale): visual injury approx. 10 days after treatment
Method in brief: as §1

ragweed [3] = experiment: Test C preemergence; type: in vivo, Ambrosia elation; conditions: for Ragweed plant response rating / Plant response rating, Ragweed: preemergence; for Plant response rating, Ragweed: 125 g ai/ha, scale 0 to 100, 0 = no effect, 100 = complete control
Method in brief: as §2

rice = experiment: Test B flood; type: in vivo, Oryza sativa; conditions: 250 g ai/ha, visual rating on 0 to 100 scale (0 no effect, 100 complete control), 13 to 15 days
Method in brief: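 Two-leaf-stage plants, pots flooded (3 cm above soil) and treated through the water, which stayed at that depth. After 13–15 days in greenhouse conditions, visual assessment versus controls: 0 is no effect, 100 complete control, dash means no result.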

pigweed [4] = experiment: Test A postemergence; type: in vivo, Amaranthus retroflexus
Method in brief: as §1

pigweed [5] = experiment: Test C postemergence; type: in vivo, Amaranthus retroflexus; conditions: for Plant response rating (scale of 0 to 100 where 0 is no effect and 100 is complete control), Pigweed: Postemergence, 31 g ai/ha, visually evaluated after 13 to 15 days; for Pigweed plant response rating / Plant response rating, Pigweed: postemergence; for Pigweed plant response rating: 62 g ai/ha, scale 0 to 100
Method in brief: as §2

ragweed [6] = experiment: Test C postemergence; type: in vivo, Ambrosia elation; conditions: for Plant response rating (scale of 0 to 100 where 0 is no effect and 100 is complete control), Ragweed: Postemergence, 31 g ai/ha, visually evaluated after 13 to 15 days
Method in brief: as §2

blackgrass = experiment: Test C postemergence; type: in vivo, Alopecurus myosuroides; conditions: for Plant response rating (scale of 0 to 100 where 0 is no effect and 100 is complete control), Blackgrass: Postemergence, 31 g ai/ha, visually evaluated after 13 to 15 days; for Blackgrass plant response rating / Plant response rating, Blackgrass: postemergence; for Blackgrass plant response rating: 62 g ai/ha, scale 0 to 100
Method in brief: as §2

velvetleaf = experiment: Test A preemergence; type: in vivo, Abutilon theophrasti; conditions: preemergence; for Velvetleaf plant response rating (0 to 100 scale): visual injury approx. 10 days after treatment
Method in brief: as §1

crabgrass, large = experiment: Test A preemergence; type: in vivo, Digitaria sanguinalis; conditions: preemergence; for Crabgrass, Large plant response rating (0 to 100 scale): visual injury approx. 10 days after treatment
Method in brief: as §1

[7] = 125 g ai/ha, visual injury, 0 to 100 scale, approx. 10 days
[8] = 500 g ai/ha, visual injury after approx. 10 days, 0 to 100 scale (0 no effect, 100 complete control)
[9] = 31 g ai/ha, visual rating, scale 0 to 100 (0 no effect, 100 complete control), 13 to 15 days
[10] = 62 g ai/ha, scale 0 to 100 (0 no effect, 100 complete control), 13 to 15 days
[11] = Postemergence, 500 g ai/ha, 0 to 100 scale (0 no effect, 100 complete control)
[12] = postemergence, 125 g ai/ha, about 10 days, visual rating on 0 to 100 scale (0 no effect, 100 complete control)
[13] = 250 g ai/ha, scale 0 to 100 (0 no effect, 100 complete control)
[14] = 125 g ai/ha, scale 0 to 100, 0 no effect, 100 complete control
[15] = postemergence, 250 g ai/ha, scale 0 to 100 (0 no effect, 100 complete control)
[16] = postemergence, 125 g ai/ha, scale 0 to 100, 0 no effect, 100 complete control
[17] = 250 g ai/ha, scale 0 to 100, 0 is no effect, 100 is complete control

## CCONC(=O)c1cc(CC)n(Cc2ccnc(OC(F)F)c2)n1 [Compound 131]
foxtail, giant; [7]
  Foxtail, Giant plant response rating: 90
foxtail, giant; [8]
  Foxtail, Giant plant response rating: 100
galium; Preemergence, 250 g ai/ha
  Plant response rating (scale of 0 to 100), Galium: 98
galium; [9]
  Galium plant response rating: 55
galium; [10]
  Galium plant response rating: 75
galium; 13 to 15 days
  Plant response rating, Galium: 75
Corn [1]; [11]
  Corn plant response rating: 100
Corn [1]; [12]
  Corn plant response rating: 80
Corn [2]; Preemergence, 250 g ai/ha
  Plant response rating (scale of 0 to 100), Corn: 98
Corn [2]; [9]
  Corn plant response rating: 40
Corn [2]; [10]
  Corn plant response rating: 90
Corn [2]; 13 to 15 days
  Plant response rating, Corn: 95
nutsedge, yellow
  Plant response rating (scale of 0 to 100 where 0 is no effect and 100 is complete control), Nutsedge, Yellow: 5
  Nutsedge, Yellow plant response rating: 5
nutsedge, yellow; [13]
  Plant response rating, Nutsedge, Yellow: 20
nutsedge, yellow; [14]
  Plant response rating, Nutsedge, Yellow: 10
wheat; [7]
  Wheat plant response rating: 90
wheat; [8]
  Wheat plant response rating: 100
Ragweed [3]; Preemergence, 250 g ai/ha
  Plant response rating (scale of 0 to 100), Ragweed: 100
Ragweed [3]; [9]
  Ragweed plant response rating: 75
Ragweed [3]; [10]
  Ragweed plant response rating: 85
Ragweed [3]; 13 to 15 days
  Plant response rating, Ragweed: 100
rice
  Plant response rating, Rice: 40
Pigweed [4]; [11]
  Pigweed plant response rating: 100
Pigweed [4]; [12]
  Pigweed plant response rating: 100
Pigweed [5]
  Plant response rating (scale of 0 to 100 where 0 is no effect and 100 is complete control), Pigweed: 35
  Pigweed plant response rating: 65
Pigweed [5]; [13]
  Plant response rating, Pigweed: 98
Pigweed [5]; [14]
  Plant response rating, Pigweed: 90
Ragweed [6]
  Plant response rating (scale of 0 to 100 where 0 is no effect and 100 is complete control), Ragweed: 5
Ragweed [6]; postemergence, 62 g ai/ha, scale 0 to 100
  Ragweed plant response rating: 30
Ragweed [6]; [15]
  Plant response rating, Ragweed: 85
Ragweed [6]; [16]
  Plant response rating, Ragweed: 60
blackgrass
  Plant response rating (scale of 0 to 100 where 0 is no effect and 100 is complete control), Blackgrass: 5
  Blackgrass plant response rating: 5
blackgrass; [13]
  Plant response rating, Blackgrass: 20
blackgrass; [14]
  Plant response rating, Blackgrass: 10
velvetleaf; [7]
  Velvetleaf plant response rating: 90
velvetleaf; [8]
  Velvetleaf plant response rating: 100
crabgrass, large; [7]
  Crabgrass, Large plant response rating: 100
crabgrass, large; [8]
  Crabgrass, Large plant response rating: 100

## O=C(NC1CC1)c1cc(CCCl)n(Cc2ccnc(C(F)(F)F)c2)n1 [Compound 144]
foxtail, giant; 125 g ai/ha
  Foxtail, Giant plant response rating (0 to 100 scale): 100
foxtail, giant; [8]
  Foxtail, Giant plant response rating: 100
galium; [9]
  Galium plant response rating: 30
galium; [10]
  Galium plant response rating: 80
galium; 13 to 15 days
  Plant response rating, Galium: 100
galium; [17]
  Galium plant response rating: 100
Corn [1]; [11]
  Corn plant response rating: 90
Corn [1]; [12]
  Corn plant response rating: 50
Corn [2]; [9]
  Corn plant response rating: 5
Corn [2]; [10]
  Corn plant response rating: 20
Corn [2]; 13 to 15 days
  Plant response rating, Corn: 60
Corn [2]; [17]
  Corn plant response rating: 85
nutsedge, yellow
  Plant response rating (scale of 0 to 100 where 0 is no effect and 100 is complete control), Nutsedge, Yellow: 10
  Nutsedge, Yellow plant response rating: 5
nutsedge, yellow; [13]
  Plant response rating, Nutsedge, Yellow: 35
nutsedge, yellow; [14]
  Plant response rating, Nutsedge, Yellow: 5
wheat; 125 g ai/ha
  Wheat plant response rating (0 to 100 scale): 50
wheat; [8]
  Wheat plant response rating: 100
Ragweed [3]; [9]
  Ragweed plant response rating: 85
Ragweed [3]; [10]
  Ragweed plant response rating: 90
Ragweed [3]; 13 to 15 days
  Plant response rating, Ragweed: 95
Ragweed [3]; [17]
  Ragweed plant response rating: 98
rice
  Plant response rating, Rice: 0
Pigweed [4]; [11]
  Pigweed plant response rating: 100
Pigweed [4]; [12]
  Pigweed plant response rating: 100
Pigweed [5]
  Plant response rating (scale of 0 to 100 where 0 is no effect and 100 is complete control), Pigweed: 65
  Pigweed plant response rating: 75
Pigweed [5]; [13]
  Plant response rating, Pigweed: 95
Pigweed [5]; [14]
  Plant response rating, Pigweed: 85
Ragweed [6]
  Plant response rating (scale of 0 to 100 where 0 is no effect and 100 is complete control), Ragweed: 10
Ragweed [6]; [15]
  Plant response rating, Ragweed: 75
Ragweed [6]; [16]
  Plant response rating, Ragweed: 35
blackgrass
  Plant response rating (scale of 0 to 100 where 0 is no effect and 100 is complete control), Blackgrass: 20
  Blackgrass plant response rating: 5
blackgrass; [13]
  Plant response rating, Blackgrass: 35
blackgrass; [14]
  Plant response rating, Blackgrass: 30
velvetleaf; 125 g ai/ha
  Velvetleaf plant response rating (0 to 100 scale): 50
velvetleaf; [8]
  Velvetleaf plant response rating: 100
crabgrass, large; 125 g ai/ha
  Crabgrass, Large plant response rating (0 to 100 scale): 100
crabgrass, large; [8]
  Crabgrass, Large plant response rating: 100

## CCCc1cc(C(=O)NC(C)C)nn1Cc1cc(C(F)(F)F)nn1C [Compound 201]
foxtail, giant; 125 g ai/ha
  Foxtail, Giant plant response rating (0 to 100 scale): 100
foxtail, giant; [8]
  Foxtail, Giant plant response rating: 100
galium; [9]
  Galium plant response rating: 95
galium; [10]
  Galium plant response rating: 95
galium; 13 to 15 days
  Plant response rating, Galium: 98
galium; [17]
  Galium plant response rating: 100
Corn [1]; [11]
  Corn plant response rating: 100
Corn [1]; [12]
  Corn plant response rating: 90
Corn [2]; [9]
  Corn plant response rating: 40
Corn [2]; [10]
  Corn plant response rating: 60
Corn [2]; 13 to 15 days
  Plant response rating, Corn: 70
Corn [2]; [17]
  Corn plant response rating: 95
nutsedge, yellow
  Plant response rating (scale of 0 to 100 where 0 is no effect and 100 is complete control), Nutsedge, Yellow: 10
  Nutsedge, Yellow plant response rating: 10
nutsedge, yellow; [13]
  Plant response rating, Nutsedge, Yellow: 10
nutsedge, yellow; [14]
  Plant response rating, Nutsedge, Yellow: 5
wheat; 125 g ai/ha
  Wheat plant response rating (0 to 100 scale): 80
wheat; [8]
  Wheat plant response rating: 100
Ragweed [3]; [9]
  Ragweed plant response rating: 80
Ragweed [3]; [10]
  Ragweed plant response rating: 85
Ragweed [3]; 13 to 15 days
  Plant response rating, Ragweed: 95
Ragweed [3]; [17]
  Ragweed plant response rating: 98
rice
  Plant response rating, Rice: 45
Pigweed [4]; Postemergence, 125 g ai/ha, 0 to 100 scale, 0 no effect, 100 complete control
  Pigweed plant response rating: 100
Pigweed [4]; [11]
  Pigweed plant response rating: 100
Pigweed [5]
  Pigweed plant response rating: 65
Pigweed [5]; [13]
  Plant response rating, Pigweed: 90
Pigweed [5]; [14]
  Plant response rating, Pigweed: 80
Ragweed [6]; [15]
  Plant response rating, Ragweed: 85
Ragweed [6]; [16]
  Plant response rating, Ragweed: 60
blackgrass
  Plant response rating (scale of 0 to 100 where 0 is no effect and 100 is complete control), Blackgrass: 20
  Blackgrass plant response rating: 5
blackgrass; [13]
  Plant response rating, Blackgrass: 60
blackgrass; [14]
  Plant response rating, Blackgrass: 15
velvetleaf; 125 g ai/ha
  Velvetleaf plant response rating (0 to 100 scale): 100
velvetleaf; [8]
  Velvetleaf plant response rating: 100
crabgrass, large; 125 g ai/ha
  Crabgrass, Large plant response rating (0 to 100 scale): 100
crabgrass, large; [8]
  Crabgrass, Large plant response rating: 100
